This is an account of results in patent US20260115250A1, “METHODS OF TREATING AGE-RELATED MACULAR DEGENERATION” (Character Biosciences, Inc., priority 2022, published 2026).

The test system of one data set is ARPE-19 cells. Description: ARPE-19 cell lysis (Sytox Green). It is filed as cell-based, human. The note with it: 10 μM peptide, 2 h. How it is done:
These figures illustrate ARPE-19 cell lysis. ARPE-19 cells were grown in 96-well plates to 75-85% confluence. Peptides at 10 mM were diluted in serum-free DMEM:F12 media into a 20 μM working solution (a 2× solution). Sytox Green was prepared in serum-free DMEM:F12 at a 1 μM working solution (a 2× solution). Equivalent volumes of the peptide and Sytox Green solutions were added to empty 96-well plates and mixed gently. Final peptide concentration was 10 μM. ARPE-19 cells (˜80% confluent in 96-well plates) were washed with DPBS and then incubated in 100 μL of peptide/Sytox Green mixture for 2 h at 37° C. Cells were fixed in 4% paraformaldehyde solution in DPBS and then incubated in 10 μM Hoechst solution for 10 min, washed, and imaged on a Yokogawa CQ1 high-content imager. CellPathfinder software was used to count live/dead cells in 4 fields of view at 20× magnification. Percent (%) lysis was calculated by dividing the number of Sytox Green+ nuclei by the total number of Hoechst+ nuclei.
ARPE-19 cells were grown in 96-well plates to 75-85% confluence. Peptides at 10 mM were diluted in serum-free DMEM: F12 media to solutions between […]. Sytox Green was prepared in serum-free DMEM: F12 media at a 1 μM working solution. Equivalent volumes of the peptide and Sytox Green solutions were added to empty 96-well plates and mixed gently. Final peptide concentration was 3.16-100 μM. ARPE-19 cells (˜80% confluent in 96-well plates) were washed with DPBS and then incubated in 100 μL of peptide/Sytox Green mixture for 2 h at 37° C. Cells were fixed in 4% paraformaldehyde solution in DPBS and then incubated in 10 μM Hoechst solution for 10 min, washed, and imaged on a Yokogawa CQ1 high-content imager. CellPathfinder software was used to count live/dead cells in 4 fields of view at 20× magnification. Percent (%) lysis was calculated by dividing the number of Sytox Green+ nuclei by the total number of Hoechst+ nuclei. Non-linear regression was used to calculate EC50 values.

Data set [1] deals with T1, LDLR (Homo sapiens, UniProt P01130). Description: KD, Peptide (μM).
Target sequence in this assay (P01130 22-860 limits assumed): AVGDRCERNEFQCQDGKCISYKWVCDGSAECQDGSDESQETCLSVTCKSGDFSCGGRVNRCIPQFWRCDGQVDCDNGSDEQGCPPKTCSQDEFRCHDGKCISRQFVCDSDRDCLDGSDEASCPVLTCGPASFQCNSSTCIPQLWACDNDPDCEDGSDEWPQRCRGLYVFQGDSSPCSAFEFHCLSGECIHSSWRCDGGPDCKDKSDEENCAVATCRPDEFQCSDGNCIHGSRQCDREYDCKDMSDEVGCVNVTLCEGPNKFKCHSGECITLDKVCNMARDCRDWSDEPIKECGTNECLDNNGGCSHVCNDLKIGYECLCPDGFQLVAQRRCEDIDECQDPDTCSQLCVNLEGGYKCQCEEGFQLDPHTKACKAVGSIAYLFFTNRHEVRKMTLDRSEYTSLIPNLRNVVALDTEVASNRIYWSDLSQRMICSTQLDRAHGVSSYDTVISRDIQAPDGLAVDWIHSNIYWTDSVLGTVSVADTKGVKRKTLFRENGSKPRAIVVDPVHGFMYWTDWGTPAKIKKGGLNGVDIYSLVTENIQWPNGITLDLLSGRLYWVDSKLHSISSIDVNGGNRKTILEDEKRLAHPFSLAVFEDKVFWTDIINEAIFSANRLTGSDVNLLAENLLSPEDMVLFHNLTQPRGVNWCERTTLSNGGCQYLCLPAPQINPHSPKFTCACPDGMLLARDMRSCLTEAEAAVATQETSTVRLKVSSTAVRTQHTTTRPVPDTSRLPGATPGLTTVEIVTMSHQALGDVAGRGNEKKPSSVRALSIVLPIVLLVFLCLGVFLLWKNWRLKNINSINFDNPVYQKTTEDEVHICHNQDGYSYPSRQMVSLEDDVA
Text: Title: Buffer: HBS + 0.005% P20
Head of the field: KD, Peptide (μM)
First copying reader's note: KD values are for binding to LDLR by SPR, peptide alone versus peptide:DMPC lipid complex; the table continues on FIG. 24B.
Data set [2] concerns the target T1, LDLR. Description: KD (µM). The source says: First copying reader's note: Left of three side-by-side panels of FIG. 23; the KD cells hold value ± error together. Where the first naming reader finds the target: description_of_the_figure: FIG. 23 is a table showing the binding kinetics results of LDLR binding assays (SPR)
Target sequence in this assay (P01130 22-860 limits assumed): as above
Data set [3] has as its target T1, LDLR. Put plainly: LDLR binding (SPR), high surfactant preparation. The following applies: high surfactant preparation (HBS-P+), 1:1 binding model; read-out: binding KD to LDLR. How it is done:
The table shown in FIG. 23 illustrates LDLR binding data (SPR), using a high surfactant preparation. Recombinant LDLR was diluted in 10 mM acetate buffer pH 4.5 and amine coupled to a CM5 chip at 1000 RU. Peptides were diluted to 5 μM in running buffer (HBS-P+, 1 mM CaCl2) and serially diluted 1:3 for 5 total concentrations. Peptides were exposed to immobilized LDLR at a rate of […] for 120 seconds. Between cycles, the chip surface was regenerated with 3 injections of 50 mM NaOH/100 mM EDTA. Multi-Cycle Kinetics was performed on a Biacore Insight Evaluation Software and binding kinetics were analyzed with a 1:1 binding model.
Target sequence in this assay (P01130 22-860): as the sequence (P01130 22-860 limits assumed) above

Ends that are not written are not given here. Peptide text beside a SMILES is read from it. Where only a bound is given, the exact number is not on record here.

With `CC(C)C[C@H](NC(=O)[C@H](CC(C)C)NC(=O)[C@H](CCCNC(=N)N)NC(=O)[C@H](CCCCN)NC(=O)[C@H](CCCNC(=N)N)NC(=O)[C@H](CC(C)C)NC(=O)[C@H](CCCCN)NC(=O)[C@H](CCCNC(=N)N)NC(=O)[C@H](CC(C)C)NC(=O)[C@@H](N)Cc1c[nH]cn1)C(=O)N[C@@H](CCCNC(=N)N)C(=O)N[C@@H](CC(=O)O)C(=O)N[C@@H](Cc1c[nH]c2ccccc12)C(=O)N[C@@H](Cc1ccccc1)C(=O)N[C@@H](CCCCN)C(=O)N[C@@H](C)C(=O)N[C@@H](Cc1ccccc1)C(=O)N[C@@H](Cc1ccc(O)cc1)C(=O)N[C@@H](CC(=O)O)C(=O)N[C@@H](CCCCN)C(=O)N[C@H](C(=O)N[C@@H](C)C(=O)N[C@@H](CCC(=O)O)C(=O)N[C@@H](CCCCN)C(=O)N[C@@H](Cc1ccccc1)C(=O)N[C@@H](CCCCN)C(=O)N[C@@H](CCC(=O)O)C(=O)N[C@@H](C)C(=O)N[C@@H](Cc1ccccc1)C(=O)O)C(C)C` [T-021] (H-HLRKLRKRLLRDWFKAFYDKVAEKFKEAF-OH), the ARPE-19 cell lysis entry in the data set with ARPE-19 cells was “induce cell lysis”. As for `CC(C)C[C@H](NC(=O)[C@H](Cc1ccccc1)NC(=O)[C@H](CCC(=O)O)NC(=O)[C@H](CCC(=O)O)NC(=O)[C@H](CC(C)C)NC(=O)[C@H](CCC(N)=O)NC(=O)[C@H](CCCNC(=N)N)NC(=O)CNC(=O)[C@@H](NC(=O)[C@H](CC(C)C)NC(=O)[C@H](CCCNC(=N)N)NC(=O)[C@H](CC(C)C)NC(=O)[C@H](CC(C)C)NC(=O)[C@H](CCCNC(=N)N)NC(=O)[C@H](CCCCN)NC(=O)[C@H](CCCNC(=N)N)NC(=O)[C@H](CC(C)C)NC(=O)[C@H](CCCCN)NC(=O)[C@H](CCCNC(=N)N)NC(=O)[C@H](CC(C)C)NC(=O)[C@@H](N)Cc1c[nH]cn1)C(C)C)C(=O)O` [T-028] (H-HLRKLRKRLLRLVGRQLEEFL-OH), in the data set with ARPE-19 cells, the ARPE-19 cell lysis result is “induce cell lysis”.

In the case of `CC(C)C[C@H](NC(=O)[C@H](CCCNC(=N)N)NC(=O)[C@H](CCCCN)NC(=O)[C@H](CCC(N)=O)NC(=O)[C@H](CC(C)C)NC(=O)[C@H](CC(=O)O)NC(=O)[C@H](CC(=O)O)NC(=O)[C@H](C)NC(=O)[C@H](CC(=O)O)NC(=O)[C@H](CCCNC(=N)N)NC(=O)[C@H](CC(C)C)NC(=O)[C@H](CC(C)C)NC(=O)[C@H](CCCNC(=N)N)NC(=O)[C@H](CCCCN)NC(=O)[C@H](CCCNC(=N)N)NC(=O)[C@H](CC(C)C)NC(=O)[C@H](CCCCN)NC(=O)[C@H](CCCNC(=N)N)NC(=O)[C@H](CC(C)C)NC(=O)[C@@H](N)Cc1c[nH]cn1)C(=O)N[C@@H](C)C(=O)N[C@H](C(=O)N[C@@H](Cc1ccc(O)cc1)C(=O)N[C@@H](CCC(N)=O)C(=O)N[C@@H](C)C(=O)NCC(=O)N[C@@H](C)C(=O)N[C@@H](CCCNC(=N)N)C(=O)N[C@@H](CCC(=O)O)C(=O)NCC(=O)N[C@@H](C)C(=O)N[C@@H](CCC(=O)O)C(=O)N[C@@H](CCCNC(=N)N)C(=O)O)C(C)C` [T-043] (H-HLRKLRKRLLRDADDLQKRLAVYQAGAREGAER-OH; N-terminus and C-terminus assumed), the Kd at LDLR [1] came to 840 ± 1150 µM; at LDLR [2], 48.6 µM. As to `CC(C)C[C@H](NC(=O)[C@H](CCCNC(=N)N)NC(=O)[C@H](CCCCN)NC(=O)[C@H](CCC(N)=O)NC(=O)[C@H](CC(C)C)NC(=O)[C@H](CC(=O)O)NC(=O)[C@H](CC(=O)O)NC(=O)[C@H](C)NC(=O)[C@H](CC(=O)O)NC(=O)[C@H](CCCNC(=N)N)NC(=O)[C@H](CC(C)C)NC(=O)[C@H](CC(C)C)NC(=O)[C@H](CCCNC(=N)N)NC(=O)[C@H](CCCCN)NC(=O)[C@H](CCCNC(=N)N)NC(=O)[C@H](CC(C)C)NC(=O)[C@H](CCCCN)NC(=O)[C@H](CCCNC(=N)N)NC(=O)[C@H](CC(C)C)NC(=O)[C@@H](N)Cc1c[nH]cn1)C(=O)N[C@@H](C)C(=O)N[C@H](C(=O)N[C@@H](Cc1ccc(O)cc1)C(=O)N[C@@H](CCC(N)=O)C(=O)N[C@@H](C)C(=O)O)C(C)C` [T-045] (H-HLRKLRKRLLRDADDLQKRLAVYQA-OH; N-terminus and C-terminus assumed), the results for the dissociation constant (Kd) on LDLR [1] and on LDLR [2] were 11800 ± 1250 µM and 71.2 ± 31.8 µM, respectively. On to `CC(C)C[C@H](NC(=O)[C@H](CCCNC(=N)N)NC(=O)[C@H](CC(=O)O)NC(=O)[C@H](CCC(N)=O)NC(=O)[C@H](CC(C)C)NC(=O)[C@H](CCCCN)NC(=O)[C@H](CC(=O)O)NC(=O)CNC(=O)[C@H](CC(=O)O)NC(=O)[C@H](CCCNC(=N)N)NC(=O)[C@H](CC(C)C)NC(=O)[C@H](CC(C)C)NC(=O)[C@H](CCCNC(=N)N)NC(=O)[C@H](CCCCN)NC(=O)[C@H](CCCNC(=N)N)NC(=O)[C@H](CC(C)C)NC(=O)[C@H](CCCCN)NC(=O)[C@H](CCCNC(=N)N)NC(=O)[C@H](CC(C)C)NC(=O)[C@H](Cc1c[nH]cn1)NC(=O)[C@H](CO)NC(=O)[C@H](C)NC(=O)[C@@H](N)CC(C)C)C(=O)N[C@@H](C)C(=O)N[C@@H](CCC(=O)O)C(=O)N[C@@H](Cc1ccc(O)cc1)C(=O)N[C@@H](CCC(N)=O)C(=O)N[C@@H](C)C(=O)N[C@@H](CCCNC(=N)N)C(=O)N[C@@H](C)C(=O)N[C@@H](CCCCN)C(=O)N[C@@H](CCC(=O)O)C(=O)N[C@@H](C)C(=O)N[C@@H](Cc1ccccc1)C(=O)N[C@@H](CC(=O)O)C(=O)N[C@@H](CCCNC(=N)N)C(=O)O` [T-048], for which the Kd on LDLR [1] was 11.4 ± 5.29 µM; at LDLR [3], less than 10 µM. Take `CC(C)C[C@H](NC(=O)[C@H](CCCNC(=N)N)NC(=O)[C@H](CC(=O)O)NC(=O)[C@H](CCC(N)=O)NC(=O)[C@H](CC(C)C)NC(=O)[C@H](CCCCN)NC(=O)[C@H](CC(=O)O)NC(=O)CNC(=O)[C@H](CC(=O)O)NC(=O)[C@H](CCCNC(=N)N)NC(=O)[C@H](C)NC(=O)[C@H](CC(C)C)NC(=O)[C@H](CCCNC(=N)N)NC(=O)[C@H](CCCCN)NC(=O)[C@H](CCCNC(=N)N)NC(=O)[C@H](CC(C)C)NC(=O)[C@H](CCCCN)NC(=O)[C@H](CCCNC(=N)N)NC(=O)[C@H](CC(C)C)NC(=O)[C@H](Cc1c[nH]cn1)NC(=O)[C@H](CCCNC(=N)N)NC(=O)[C@H](C)NC(=O)[C@@H](N)CC(C)C)C(=O)N[C@@H](C)C(=O)N[C@@H](CCC(=O)O)C(=O)N[C@@H](Cc1ccc(O)cc1)C(=O)N[C@@H](CCC(N)=O)C(=O)N[C@@H](C)C(=O)N[C@@H](CCCNC(=N)N)C(=O)N[C@@H](C)C(=O)N[C@@H](CCCCN)C(=O)N[C@@H](CCC(=O)O)C(=O)N[C@@H](C)C(=O)N[C@@H](Cc1ccccc1)C(=O)N[C@@H](CC(=O)O)C(=O)N[C@@H](CCCNC(=N)N)C(=O)O` [T-049] (H-LARHLRKLRKRLARDGDKLQDRLAEYQARAKEAFDR-OH): the dissociation constant (Kd) on LDLR [2] is 3.26 ± 0.2 µM; on LDLR [3] it was less than 10 µM. With `CC(C)C[C@H](NC(=O)[C@H](CCCNC(=N)N)NC(=O)[C@H](CC(=O)O)NC(=O)[C@H](CCC(N)=O)NC(=O)[C@H](CC(C)C)NC(=O)[C@H](CCCCN)NC(=O)[C@H](CC(=O)O)NC(=O)CNC(=O)[C@H](CC(=O)O)NC(=O)[C@H](CCCNC(=N)N)NC(=O)[C@H](CC(C)C)NC(=O)[C@H](CC(C)C)NC(=O)[C@H](CCCNC(=N)N)NC(=O)[C@H](CCCCN)NC(=O)[C@H](CCCNC(=N)N)NC(=O)[C@H](CC(C)C)NC(=O)[C@H](CCCCN)NC(=O)[C@H](CCCNC(=N)N)NC(=O)[C@H](CC(C)C)NC(=O)[C@@H](N)Cc1c[nH]cn1)C(=O)N[C@@H](C)C(=O)N[C@H](C(=O)N[C@@H](Cc1ccc(O)cc1)C(=O)N[C@@H](CCC(N)=O)C(=O)N[C@@H](C)C(=O)N[C@@H](CCCNC(=N)N)C(=O)N[C@@H](C)C(=O)N[C@@H](CCCCN)C(=O)N[C@@H](CCC(=O)O)C(=O)N[C@@H](C)C(=O)N[C@@H](Cc1ccccc1)C(=O)N[C@@H](CC(=O)O)C(=O)N[C@@H](CCCNC(=N)N)C(=O)O)C(C)C` [T-053] (H-HLRKLRKRLLRDGDKLQDRLAVYQARAKEAFDR-OH; N-terminus and C-terminus assumed), the dissociation constant Kd on LDLR [1] worked out at 43000 ± 34000 µM; at LDLR [2], 121 ± 14.9 µM. Turning to “LVQYRGEVQAMLGQSTEELRVRLASHLRKLRKRLLRDADDLQ [T-071]”, the Kd at LDLR [1] was determined as 18.5 ± 2.69 µM.

What is called Kd is the concentration at which binding is half-saturated.
